Source: patent US20120121574A1, “ANTIMICROBIAL, ANTIVIRAL, ANTICANCER AND IMMUNOMODULATORY PEPTIDES AND USES THEREFORE” (priority 2010, published 2012)
Like-named read-outs stand apart in the source and are kept apart here. Where no end group is shown, it is not given here.

What was measured:
[1] = tested on: U937 cell line; assay: annexine-V/propidium iodide flow cytometry on U937; conditions: annexine-V/propidium iodide staining
[2] = tested on: C. albicans SC5314 strain
Procedure: In vitro activity of N10K against C. albicans SC5314 strain. The candidacidal activity of N10K peptide against C. albicans was assessed by a conventional colony forming unit (CFU) assay as previously described (Polonelli et al., 2003; Manfredi et al., 2005). Briefly, cells of C. albicans SC5314 were incubated at 37° C. for 6 hours (hr) in the presence of N10K at the concentration indicated of 20, 12.5 or 6.25 microgram/ml, or in distilled water as control (C). After incubation, cell suspensions were plated on Sabouraud dextrose agar and incubated at 30° C. for 48 hours when CFU were counted (** P<0.01 for N10K treated versus untreated cells, by t test). […]
The alanine-substituted derivatives (asd), defined according to the position held by the alanine-substituted aminoacid, were tested against C. albicans by a conventional colony forming unit (CFU) as previously described (Polonelli et al., 2003). Briefly, cells of C. albicans SC5314 were incubated at 37° C. for 6 hours in the presence of N10K or N10K asd at different scalar concentrations or distilled water as control. After incubation, cell suspensions were plated on Sabouraud dextrose agar and incubated at 30° C. for 48 hours when CFU were counted. Based on several independent replications, the EC50 value of each peptide was calculated by nonlinear regression analysis using Graph Pad Prism 4.01 software, San Diego, Calif., USA. […]
In vitro microbicidal activity of N10K derivative with 2 amino acid substitutions, or 80% sequence identity with native N10K, namely peptide Seq Id. No. 25 was tested against Candida albicans SC5314 as determined by Colony Forming Unit assay.

[3] = tested on: B16F10-Nex2 melanoma cells; assay: melanoma cell viability by Trypan Blue exclusion; conditions: 1 mM to 0.05 mM, 12 hr
Procedure: (§1) In vitro activity of N10K against B16F10-Nex2, SKme128 and SKme125 melanoma cells. Peptide N10K and the relative scramble peptide (SP) used as negative control were diluted from 1 mM to 0.05 mM in RPMI with 10% FCS and incubated with B16F10-Nex2, SKme128 and SKme125 cells (5×10^3 cells/well) in 100 microliters per well for 12 hr at 37° C. Each peptide was tested in triplicate. After 12 hr, the cytotoxic activities of the peptides were determined by measuring cell viability by Trypan Blue exclusion. A 50% inhibition of cell growth was taken as a comparative index of cytotoxicity (EC50).
as §1, with “T11F” for “N10K”, “microL” for “microliters”, “37 u°” for “37°”

[4] = tested on: C. neoformans 6995 strain; conditions: 6 hours 37° C.; multiple experiments
Procedure: After the incubation period, the cell suspensions have been plated on Sabouraud dextrose agar, then incubated at 30° C. and observed for CFU enumeration after 48 hours.

[5] = tested on: PBMC; assay: AlamarBlue cell viability assay on PBMC; conditions: 1-20 micrograms/ml concentration range, 24 hours
Procedure: In vitro activity of N10K against HIV-1. PBMC from healthy donors were cultured at the concentration of 2×10^6 cells/ml in 96 wells plates with RPMI 1640 supplemented with 10% FBS, 1% glutamine and 20 UI/ml rIL-2 for 24 hr before treatment with N10K, then the peptide was added at increasing concentrations (1, 10 and 20 micrograms/ml) for 24 hours. AlamarBlue was added (10% v/v) and incubated for 4 hours at 37° C. Cells viability was determined by the AlamarBlue Assay (Biosource International, Inc.). The absorbance was measured with an ELISA plate reader (Tecan Sunrise Absorbance Reader) at the double wavelength of 570/595 nm. AlamarBlue added to the complete RPMI1640 medium was used as blank. […] To verify the anti-HIV-1 activity, an in vitro infection applying two different experimental approaches was performed. PBMC from 3 healthy donors were purified by Ficoll gradient centrifugation, mixed in pool and cultured in RPMI 1640 medium (10% FBS, 1% glutamine and 1% penicillin streptomycin). Before infection cells were stimulated for 24 hours with PHA (5 micrograms/ml) and after with rIL-2 (20 UI/ml). […] Viral replication was evaluated measuring the concentration of the p24 antigen in the culture supernatants by the HIV p24 ELISA Ultrasensitive detection kit (PerkinElmer, Inc.). […]

## NQVSLTCLVK [Peptide N10K, N Q V S L T C L V K]
[1]
  induction of apoptotic/necrotic effects: exclude the induction of apoptotic/necrotic effects
[2]; 6 hours 37° C., several independent replications, peptide batches of Examples I and II
  EC50: 10 µM
[2]; SC5314, 6 h
  EC50: 1 µM
[3]
  cytotoxic activity (cell viability): showed activity
[4]
  EC50: 5.16 µM
[5]
  cytotoxicity for PBMC (cell viability): not to be cytotoxic
